From US6566541B2, “Type 2 methionine aminopeptidase (MetAP2) inhibitors and uses thereof” (Massachusetts Institute of Technology, priority 1997, dated 2003)
Read-outs that look alike come from different tables or passages of the source.

Key:
[1] = test system: bovine aortic endothelial cell (BAEC); assay: bovine aortic endothelial cell (BAEC) proliferation assay (MTT); format: cell-based; conditions: for IC50: Bos taurus; for activity in the BAEC proliferation assay: result in words
Protocol: BAEC were trypsinized and plated into 96-well plates at a density of 2000 cells per well. After the cells adhered to the plate, compounds dissolved in ethanol (final concentration of 0.5%) were added to the cultures.
(§1) Synthesis was according to the procedures as described in Mauri et al., Chem. Pharm. Bull. […] Bull.

recombinant human MetAP2 [2] = molecular target: T1, recombinant human MetAP2 (Homo sapiens, UniProt P50579); assay: methionine aminopeptidase activity of MetAP2 (Met-Gly-Met-Met substrate); format: biochemical
T1 construct: made in house; host or cells: insect cells
T1 sequence (P50579 whole entry): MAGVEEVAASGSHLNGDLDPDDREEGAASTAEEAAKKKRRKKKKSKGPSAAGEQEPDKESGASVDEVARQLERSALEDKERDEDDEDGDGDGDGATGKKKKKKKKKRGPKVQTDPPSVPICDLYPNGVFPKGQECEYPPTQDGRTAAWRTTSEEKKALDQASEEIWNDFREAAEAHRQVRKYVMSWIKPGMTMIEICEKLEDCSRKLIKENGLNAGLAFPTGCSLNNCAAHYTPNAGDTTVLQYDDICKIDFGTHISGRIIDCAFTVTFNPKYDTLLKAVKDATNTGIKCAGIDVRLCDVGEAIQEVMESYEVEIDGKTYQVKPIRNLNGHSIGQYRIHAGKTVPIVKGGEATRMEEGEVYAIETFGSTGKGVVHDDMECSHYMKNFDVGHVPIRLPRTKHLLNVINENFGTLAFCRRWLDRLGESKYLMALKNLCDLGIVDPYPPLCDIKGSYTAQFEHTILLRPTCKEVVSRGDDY
Protocol: Recombinant human MetAP2 was expressed and purified from insect cells as described in Li and Chang, Biochem. Biophys. Res. Commun. […] Released methionine was quantified at different time points (0, 2, 3 and 5 min) using the method of Zuo et al., Mol. Gen.
as §1

recombinant human MetAP2 [3] = molecular target: T1, recombinant human MetAP2; assay: MetAP2 inhibition of eIF-2α phosphorylation by heme-regulated inhibitor kinase (HRI); format: biochemical; conditions: compared with unbound MetAP2
Protocol: Modified or control MetAP2 (0.6 μg) was incubated with purified eIF-2 (0.3 μg) in 20 mM Tris·HCl, pH 7.8, 40 mM KCl, and 2 mM MgAC2 on ice for 1 hr. Recombinant HRI (0.25 ng) and [γ-^32P]ATP were then added to a final total volume of 20 μl and the reaction mixture was further incubated at 37° C. for 10 min. The labeled eIF-2α was analyzed by 10% SDS-PAGE followed by autoradiography. The phosphorylated bands were quantified by NIH Image 1.60 software.

[4] = test system: Wild-type [YPH500] yeast cells; assay: yeast growth on YEPD plates containing drug, wild type; format: cell-based, Saccharomyces cerevisiae; conditions: 50 nM drug, YEPD plate, 30° C., four days
Description: (§2) […]. […] […].

[5] = test system: map1 null [XLP101 (map1::HIS3)] yeast cells; assay: yeast growth on YEPD plates containing drug, map1 null; format: cell-based, Saccharomyces cerevisiae; conditions: 50 nM drug, YEPD plate, 30° C., four days
Description: as §2

[6] = test system: map2 null [XLP201 (map2::URA3)] yeast cells; conditions: 50 nM drug, YEPD plate, 30° C., four days
Protocol: To further test the specificity of these drugs, both wild type and mutant yeast strains lacking either MetAP1 (map1) or MetAP2 (map2) were plated onto media containing the two drugs. […] The plates were incubated at 30° C. for four days.

recombinant yeast MetAP1 = molecular target: T2, recombinant yeast MetAP1 (Saccharomyces cerevisiae, UniProt Q01662); assay: MetAP activity of recombinant yeast MetAP1 in vitro; format: biochemical; conditions: concentrations up to 10 μM
T2 sequence (Q01662 1-387): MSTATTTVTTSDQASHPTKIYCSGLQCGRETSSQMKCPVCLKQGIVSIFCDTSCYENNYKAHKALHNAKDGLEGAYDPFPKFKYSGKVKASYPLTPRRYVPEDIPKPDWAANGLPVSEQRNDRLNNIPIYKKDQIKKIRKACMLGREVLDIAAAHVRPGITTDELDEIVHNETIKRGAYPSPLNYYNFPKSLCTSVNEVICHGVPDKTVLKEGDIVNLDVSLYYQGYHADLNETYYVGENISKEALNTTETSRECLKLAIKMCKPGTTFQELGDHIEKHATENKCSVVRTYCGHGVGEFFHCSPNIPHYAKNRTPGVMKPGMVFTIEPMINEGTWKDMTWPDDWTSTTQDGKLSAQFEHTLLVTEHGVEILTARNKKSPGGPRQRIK

recombinant yeast MetAP2 = recombinant yeast MetAP2 (Saccharomyces cerevisiae, UniProt P38174); assay: MetAP activity of recombinant yeast MetAP2 in vitro; format: biochemical; conditions: concentrations as low as 5 nM
Chain of recombinant yeast MetAP2 (P38174 whole entry): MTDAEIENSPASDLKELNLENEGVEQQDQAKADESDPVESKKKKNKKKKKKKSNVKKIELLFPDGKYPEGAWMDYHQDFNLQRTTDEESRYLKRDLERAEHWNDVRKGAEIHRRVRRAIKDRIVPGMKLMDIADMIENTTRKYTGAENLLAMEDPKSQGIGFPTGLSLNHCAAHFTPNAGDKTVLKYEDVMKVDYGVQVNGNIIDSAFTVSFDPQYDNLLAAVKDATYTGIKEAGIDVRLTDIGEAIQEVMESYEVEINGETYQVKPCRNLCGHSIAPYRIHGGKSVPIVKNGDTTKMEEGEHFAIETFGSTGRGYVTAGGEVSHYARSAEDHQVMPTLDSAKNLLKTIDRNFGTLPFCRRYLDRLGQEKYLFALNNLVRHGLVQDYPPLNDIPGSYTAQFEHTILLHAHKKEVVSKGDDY

67 kD (p67) = molecular target: T3, 67 kD (p67) (Bos taurus, UniProt Q3ZC89); assay: competition of ovalicin photoaffinity labeling in BAEC extracts; format: binding, bovine; conditions: BAEC extract preincubated with excess cold competitor
T3 construct: endogenous in cells; host or cells: BAEC (bovine aortic endothelial cells) extract
T3 sequence (Q3ZC89 whole entry): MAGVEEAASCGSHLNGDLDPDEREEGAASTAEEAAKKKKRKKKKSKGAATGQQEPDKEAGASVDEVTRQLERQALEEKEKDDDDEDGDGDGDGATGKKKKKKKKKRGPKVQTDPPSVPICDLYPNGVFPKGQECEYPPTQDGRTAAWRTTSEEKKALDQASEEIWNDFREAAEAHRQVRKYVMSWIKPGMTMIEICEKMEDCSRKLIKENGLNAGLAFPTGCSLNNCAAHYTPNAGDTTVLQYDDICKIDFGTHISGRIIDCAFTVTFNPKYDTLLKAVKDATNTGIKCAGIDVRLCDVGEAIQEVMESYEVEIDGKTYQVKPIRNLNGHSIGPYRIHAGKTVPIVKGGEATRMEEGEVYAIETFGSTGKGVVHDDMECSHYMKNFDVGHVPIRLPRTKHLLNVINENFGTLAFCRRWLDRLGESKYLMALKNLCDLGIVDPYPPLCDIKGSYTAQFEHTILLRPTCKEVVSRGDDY
Protocol: Photoaffinity labeling was performed as follows. […] Reaction mixtures were incubated on ice in the dark for 1 hr and then irradiated at 254 nm (0.2 J/cm^2). Reactions were quenched by adding 1.5 μl β-mercaptoethanol followed by 7.5 μl 5×SDS sample buffer and heated in a boiling water bath for 3 min. Samples were analyzed by 10% SDS/PAGE, followed by autoradiography.

recombinant human MetAP2 [7] = molecular target: T1, recombinant human MetAP2; assay: covalent binding to MetAP2 (biotin conjugates, denaturing SDS-PAGE, streptavidin-HRP); conditions: drug-protein complex maintained under denaturing conditions
Protocol: The protein samples were boiled in a sample buffer containing SDS and β-mercaptoethanol, subjected to SDS-PAGE, and transferred to nitrocellulose.
100 ng of recombinant human MetAP2 was incubated in 40 μl binding buffer (20 mM Tris·HCl, pH 7.1, 100 mM KCl, 0.2% Triton X-100) in the presence or absence of competitors for 1 hr followed by incubation with the biotin conjugates (1 μM) at 4° C. for 2 hr. 40 μl of 2×SDS sample buffer containing β-mercaptoethanol was added and the samples were boiled for 10 min. Following SDS-PAGE, the samples were transferred to nitrocellulose at 50V for 1 hr at 4° C. and blocked overnight in blocking solution (5% BSA, 2% Nonfat milk, 0.02% NaN3 in PBS). The membrane was incubated with rabbit anti-human MetAP2 antibodies (1:500) for 1 hr at room temperature, followed by incubation with sheep anti-rabbit IgG-HRP or incubated with streptavidin-HRP (1:1000) for 1 hr and visualized with the chemilluminescent ECL kit (Amersham, Arlington Heights, Ill.), as per manufacturer's instructions.

p67 (MetAP2) = p67 (MetAP2) (Mus musculus, UniProt O08663)
Chain of p67 (MetAP2) (O08663 whole entry): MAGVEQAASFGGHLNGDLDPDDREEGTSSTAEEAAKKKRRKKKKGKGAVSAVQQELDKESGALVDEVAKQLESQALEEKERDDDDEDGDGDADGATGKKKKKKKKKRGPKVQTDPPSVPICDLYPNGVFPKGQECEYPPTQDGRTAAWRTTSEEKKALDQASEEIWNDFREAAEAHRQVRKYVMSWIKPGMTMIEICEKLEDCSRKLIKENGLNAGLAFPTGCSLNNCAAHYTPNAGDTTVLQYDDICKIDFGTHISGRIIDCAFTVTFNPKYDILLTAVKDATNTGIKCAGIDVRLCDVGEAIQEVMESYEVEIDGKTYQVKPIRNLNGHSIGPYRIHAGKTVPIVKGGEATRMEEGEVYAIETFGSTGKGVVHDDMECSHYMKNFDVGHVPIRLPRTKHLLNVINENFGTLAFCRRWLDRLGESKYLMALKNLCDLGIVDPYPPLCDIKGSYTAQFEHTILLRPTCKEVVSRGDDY

[8] = BAEC proliferation, average of at least three experiments, read-out: Proliferation IC50
[9] = MetAP2 IC50 (nM), MetAP2 enzymatic activity, average of at least three experiments
[10] = BAEC, read-out: Proliferation IC50 (nM)
[11] = MetAP2 enzymatic activity, average of at least three experiments, read-out: MetAP2 IC50

Compound: CO[C@@H]1[C@H](OC(=O)NC(=O)CCl)CC[C@]2(CO2)[C@H]1[C@@]1(C)O[C@@H]1CC=C(C)C [AGM-1470]
- IC50 [1, 8]: 0.037 ± 0.0024 nM
- IC50 (recombinant human MetAP2 [2]; IC50, methionine aminopeptidase activity of MetAP2, estimated, 1 nM of recombinant human MetAP2 used in the assay): ~1 nM
- IC50 (recombinant human MetAP2 [2]; [9]): 1 ± 0.3 nM
- MetAP2 bound by drug: inhibiting phosphorylation of eIF-2α by HRI (recombinant human MetAP2 [3]): as effective as unbound MetAP2
- growth of wild type yeast [4]: resistant
- growth of the map1 mutant [5]: completely inhibited
- growth of map2 mutant yeast [6]: resistant
- inhibition of MetAP activity of the type 1 enzyme (recombinant yeast MetAP1): No inhibition
- inhibition of the yeast MetAP2 enzyme (recombinant yeast MetAP2): completely inhibited
- effect on p67 labeling by ovalicin photoaffinity probe (67 kD (p67)): abrogated p67 labeling
- mode of binding to MetAP2 (recombinant human MetAP2 [7]): bound to MetAP2 covalently
- competition of band reacting with anti-human MetAP2 antibodies (p67 (MetAP2); Western blot of protein retained by biotin-fumagillin and biotin-ovalicin conjugates): elimination of the cross-reacting band
- p67 retention by biotin-ovalicin conjugate on immobilized streptavidin (p67 (MetAP2); mouse embryo extract, 50 μM competitor): sensitive
- competition of p67 binding by biotin-fumagillin (p67 (MetAP2); mouse embryo extract, 50 μM competitor, silver stain): competed

Compound: CO[C@@H]1[C@H](O)CC[C@]2(CO2)[C@@]1(O)[C@@]1(C)O[C@@H]1CC=C(C)C [FOS-34, (3S,4R,5R,6R)-4-[(1′S,2′S)-1′,2′-Epoxy-1′,5′-dimethyl-4′-hexenyl]-5-methoxy-1-oxaspiror[2.5]octane-4,6-diol]
- IC50 [1, 10]: 2.2 ± 1.4 nM
- IC50 (recombinant human MetAP2 [2]; [9]): 4 ± 1 nM

Compound: COC1C(OC(=O)NC(=O)CCl)CCC(O)(CSC)C1(O)C1(C)OC1CC=C(C)C [FOS-67, (1R,2S,3R,4R)-1-Methylthiomethylene-2-[(1′S,2′S)-1′,2′-epoxy-1′,5′-dimethyl-4′-hexenyl]-3-methoxy-4-O-(N-chloroacetyl)carbamoyl-cyclohexane-1,2,4-triol]
- IC50 [1, 8]: 40 ± 4 nM
- IC50 (recombinant human MetAP2 [2]; [11]): 400 ± 200 nM

Compound: CO[C@@H]1[C@H](OC(=O)NC(=O)CCl)CC[C@]2(CO2)[C@@]1(O)[C@@]1(C)O[C@@H]1CC=C(C)C [FOS-68, (3S,4R,5R,6R)-4-[(1′S,2′S)-1′,2′-Epoxy-1′,5′-dimethyl-4′-hexenyl]-5-methoxy-6-O(N-chloro-acetyl)carbamoyl-1-oxaspiror[2.5]octane-4,6-diol]
- IC50 [1, 8]: 0.46 ± 0.26 nM
- IC50 (recombinant human MetAP2 [2]; [11]): 2 ± 0.8 nM

Compound: CO[C@@H]1[C@H](OC(=O)CCCCl)CC[C@]2(CO2)[C@@]1(O)[C@@]1(C)O[C@@H]1CC=C(C)C [FOS-69, (3S,4R,5R,6R)-4-[(1′S,2′S)-1′,2′-Epoxy-1′5′-dimethyl-4′-hexenyl]-5-methoxy-6-O(4″chlorobutyryl)-1-oxaspiror[2.5]octane-4,6-diol]
- IC50 [1, 8]: 0.31 ± 0.066 nM
- IC50 (recombinant human MetAP2 [2]; [9]): 0.1 ± 0.03 nM

Compound: CO[C@@H]1C(=O)CC[C@]2(CO2)[C@H]1[C@@]1(C)O[C@@H]1CC=C(C)C [FOS-72, (3R,4S,5S)-4-[(1′R,2′S)-1′,2′-Epoxy-1′,5′-dimethyl-4′-hexenyl]-5-methoxy-1-oxaspiror[2.5]octan-6-one]
- IC50 [1, 10]: 0.013 ± 0.0015 nM
- IC50 (recombinant human MetAP2 [2]; [11]): 6 ± 2 nM

Compound: COC1C(O)CCC(O)(CSC)C1(O)C1(C)OC1CC=C(C)C [FOS-201, (1R,2S,3R,4R)-1-Methylthiomethylene-2-[(1′S,2′S)-1′,2′-epoxy-1′,5′-dimethyl-4′hexenyl]-3-methoxycyclohexane-1,2,4-triol]
- IC50 [1, 8]: 56 ± 34 nM
- IC50 (recombinant human MetAP2 [2]; [11]): 45 ± 12 nM

Compound: CO[C@@H]1C(=O)CC[C@]2(CO2)[C@@]1(O)[C@@]1(C)O[C@@H]1CC=C(C)C [Ovalicin]
- growth of wild type yeast [4]: resistant
- growth of the map1 mutant [5]: completely inhibited
- inhibition of MetAP activity of the type 1 enzyme (recombinant yeast MetAP1): No inhibition
- inhibition of the yeast MetAP2 enzyme (recombinant yeast MetAP2): completely inhibited

Compound: COC1C(OC(=O)NCCCCCCCCNC(=O)CCCCC2SCC3NC(=O)NC32)CCC2(CO2)C1C1(C)OC1CC=C(C)C (centres unmarked) [biotin-fumagillin]
- activity in the BAEC proliferation assay [1]: retain significant activity

Compound: CO[C@@H]1[C@H](OC(=O)NCCNC(=O)CCc2ccc(O)cc2)CC[C@]2(CO2)[C@@]1(O)C1(C)O[C@@H]1CC=C(C)C (some centres unmarked) [photoaffinity label mimic]
- activity in the BAEC proliferation assay [1]: retained significant, albeit decreased, activity
